Data: patent US8445523B2, “Dioxo-imidazolidine derivatives, which inhibit the enzyme SOAT-1, and pharmaceutical and cosmetic compositions containing them” (Galderma Research & Development, priority 2009, dated 2013)
pIC50: −log10 of the molar value.

What follows are molecules tested against T1, enzyme ACAT-1 (Homo sapiens, UniProt P35610) (assay: HepG2 NBD-cholesterol fluorescence test of inhibitory activity towards ACAT-1 (SOAT-1)). Details: HepG2 cells, NBD-cholesterol 1 μg/ml, incubation 6 hours at 37° C., fluorescence read (490/540 nm).
T1 construct: endogenous in cells; host or cells: HepG2
T1 sequence (P35610 1-550): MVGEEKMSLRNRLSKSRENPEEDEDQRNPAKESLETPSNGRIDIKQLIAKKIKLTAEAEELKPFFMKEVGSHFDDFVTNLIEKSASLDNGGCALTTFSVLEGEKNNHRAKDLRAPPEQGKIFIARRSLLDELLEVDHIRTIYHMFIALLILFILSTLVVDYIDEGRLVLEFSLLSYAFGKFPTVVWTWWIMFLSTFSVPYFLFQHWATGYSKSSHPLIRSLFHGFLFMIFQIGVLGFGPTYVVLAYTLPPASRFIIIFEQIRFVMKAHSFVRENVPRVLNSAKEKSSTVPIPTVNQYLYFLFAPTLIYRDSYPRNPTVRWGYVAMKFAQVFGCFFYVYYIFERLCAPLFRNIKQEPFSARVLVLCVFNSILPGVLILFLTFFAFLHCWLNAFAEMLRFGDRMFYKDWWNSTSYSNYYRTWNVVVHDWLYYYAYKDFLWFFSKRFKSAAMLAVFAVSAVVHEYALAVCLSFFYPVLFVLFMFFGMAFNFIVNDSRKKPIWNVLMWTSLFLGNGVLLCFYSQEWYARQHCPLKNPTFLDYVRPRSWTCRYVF
Type: cell-based
Procedure: The compounds (I) according to the invention, and also the pharmaceutically acceptable salts, solvates and/or hydrates thereof, have inhibitory properties on the enzyme SOAT-1. This inhibitory activity on the enzyme SOAT-1 is measured according to a HepG2 primary enzymatic test, as described in Example 11.
The compounds of formula (I) according to the invention were subjected to a test for evaluating their inhibitory activity towards the enzyme ACAT-1, inspired by the following publication: “Identification of ACAT1- and ACAT2-specific inhibitors using a novel, cell based fluorescence assay: individual ACAT uniqueness”, J. Lipid. Res. (2004) vol. 45, pages 378-386.
The principle of this test is based on the use of NBD-cholesterol, a cholesterol analogue whose fluorescence depends on its environment. When this molecule is in a polar environment, it is weakly fluorescent, whereas in a non-polar environment, it is strongly fluorescent. Free NBD-cholesterol becomes inserted in cell membranes and is weakly fluorescent in this polar environment. When NBD-cholesterol is esterified with ACAT, the NBD-cholesterol ester enters non-polar lipid droplets and is then strongly fluorescent.
The method below is applied: HepG2 cells are incubated in the presence of NBD-cholesterol (1 μg/ml) and of the test compound of formula (I) in black transparent-bottomed 96-well plates, at a rate of 30 000 cells per well. After incubation for 6 hours at 37° C. under 5% CO2, the medium is removed by turning upside-down and the cells are washed with twice 100 μl of PBS. After addition of 50 μl of lysis buffer (10 mM NaPO4, 1% Igepal), the plates are shaken for 5 minutes and the fluorescence is read (excitation at 490 nm, emission at 540 nm) on a Fusion machine (Perkin-Elmer).
`COc1ccc(N2C(=O)N(CC(=O)Nc3c(C(C)C)cccc3C(C)C)C(=O)C23CCCCC3)cn1` [compound (2)] showed a pIC50 of 8.52.
`Cc1ccc(N2C(=O)N(CC(=O)Nc3c(C(C)C)cccc3C(C)C)C(=O)C23CCOCC3)cn1` [compound (5)] gave a pIC50 of 7.10.
Molecule `Cc1ccc(N2C(=O)N(CC(=O)Nc3c(C(C)C)cccc3C(C)C)C(=O)C23CCCCC3)cn1` [compound (4), N-(2,6-Diisopropylphenyl)-2-[1-(6-methyl-pyridin-3-yl)-2,4-dioxo-1,3-diazaspiro[4.5]dec-3-yl]-acetamide] has a pIC50 of 9.22.
For `Cc1cnc(N2C(=O)N(CC(=O)Nc3c(C(C)C)cccc3C(C)C)C(=O)C23CCCCC3)cn1` [compound (3)], the pIC50 was 8.26.
With `CC(C)c1cccc(C(C)C)c1NC(=O)CN1C(=O)N(c2cccnc2)C2(CCCCC2)C1=O` [compound (1)] the pIC50 was 8.05.
